Patent publication US20100087486A1, “METHODS FOR USING TGF-B RECEPTOR INHIBITORS OR ACTIVIN-LIKE KINASE (ALK) 5 INHIBITORS A-83-01 AND SB-431542 TO TREAT EYE DISEASE AND WOUND HEALING CONDITIONS” (priority 2008, published 2010)
Where two headings read alike, the source gives them in different places.

Experiments:
[1] = system: TGF-β2 signaling pathway; test: Western blotting for α-SMA and fibronectin in TGF-β2-treated fibroblasts; format: cell-based, rabbit; conditions: incubated 48 to 72 hours; for band intensity for fibronectin and α-SMA compared with samples not treated with the inhibitors: more pronounced with higher concentration; for fibronectin and α-SMA protein expression induced by TGF-B2: rabbit subconjunctival fibroblasts, 2 ng/ml TGF-β2
Protocol: (§1) Sample fibroblasts were obtained from New Zealand white rabbit eyes. The fibroblasts were derived from the subconjunctival tissues isolated from the eyes of the subjects. The third to fifth passages of cells were maintained in 25 cm^2 flasks using 3 ml of medium composed of Eagle's minimal essential medium, 10% fetal bovine serum, 5% calf serum, essential and nonessential aminoacids, and antibiotics. When the cells reached confluence, they were trypsinized and passaged.
(§2) The fibroblast cultures in 6-well plates were pre-treated with 2 ml of medium including ALK-5 inhibitors at various concentrations, 0.03, 0.1, […], 1.0, 3.0, and 10.0 μM, for one hour, and were additionally treated with
(§3) 2 ng/ml of TGF-β2 (R&D Systems, Minneapolis, Minn.) for up to 72 hours.
To test for fibronectin and α-SMA protein expression after the treatment with the respective inhibitors, rabbit subconjunctival fibroblasts, as prepared in samples 1-16, were incubated for 48 to 72 hours. […] Band intensity for both proteins was reduced in A-83-01 and SB-431542 treated samples compared with the bands of those samples not treated with the inhibitors. The reduction in protein levels is more pronounced with a higher concentration of the inhibitors. The blots were also probed for β-actin to control for equal protein loading.
Proteins in the cell lysates (20 μg/lane) were resolved on a 10% sodium dodecyl sulfate (SDS)-polyacrylamide gel. The proteins were transferred to nitrocellulose. After blocking with 1% bovine serum albumin, the membranes were probed with monoclonal mouse anti-α-SMA (1:9,000) followed by HRP-conjugated goat anti-mouse IgG (1:150,000; Jackson), or monoclonal mouse anti-fibronectin (1:1,000) followed by HRP-conjugated goat anti-mouse IgG (1:10,000). Signals were detected by enhanced chemiluminescense.

[2] = system: TGF-β2-induced proteins; test: Immunocytofluorescence microscopy for CTGF, fibronectin and α-SMA; conditions: for staining intensity of TGF-β2-induced proteins (CTGF, α-SMA, fibronectin): samples 5-6 (A-83-01 1.0, 3.0 μM) and 13-14 (SB-431542 3.0, 10.0 μM), 2 ng/ml TGF-β2, 72 hours
Protocol: (§4) In another example, subconjunctival fibroblasts were cultured on 8-well chamber slides. The samples were prepared as in samples 5-6 and 13-16 and incubated for 72 hours. After inhibitor treatment, the fibroblast cultures were fixed with 4% paraformaldehyde or with ice-cold methanol for Alexa Fluor or FITC staining, respectively. After permeabilization, the cells cultures were incubated with polyclonal goat anti-CTGF (1:50, Santa Cruz) followed by Alexa Fluor donkey anti-goat IgG (10 μg/mL, Invitrogen), monoclonal mouse anti-fibronectin (10 μg/mL, Invitrogen) or monoclonal mouse anti-α-SMA (1:400, Sigma) followed by FITC goat anti-mouse IgG (1:100, Jackson ImmunoResearch). The cell cultures were mounted with aqueous mounting media with DAPI and viewed by fluoresence microscopy.
Nuclei were stained with DAPI (blue).

[3] = system: rabbit fibroblasts; test: Fibroblast morphology by phase contrast microscopy; conditions: 5 ng/ml TGF-β2; for TGF-β2-induced morphologic change (myofibroblast-like appearance): sample 6 (A-83-01 3.0 μM), sample 14 (SB-431542 10.0 μM)
Protocol: In another example, rabbit fibroblasts were prepared as in samples 6, 14, 15, and 16 except that 5 ng/ml of TGF-β2 was added to the samples instead of 2 ng/ml.

[4] = system: cultured rabbit subconjunctival fibroblasts; test: TGF-β2 activity related to wound healing in cultured fibroblasts (overall conclusion); format: cell-based; conditions: for cell toxicity: cell cultures prepared with either inhibitor; for TGF-β2 activity related to wound healing: cultured rabbit subconjunctival fibroblasts
Protocol: as §1, §2, §3
Thus, these inhibitors may be used as ocular anti-scarring agents, especially for glaucoma filtration surgery.

[5] = system: TGF-β2-induced proteins
Protocol: as §4
Nuclei were stained with DAPI (blue).

Compound | band intensity for fibronectin and α-SMA compared with samples not treated with the inhibitors [1] | fibronectin and α-SMA protein expression induced by TGF-B2 [1] | staining intensity of TGF-β2-induced proteins (CTGF, α-SMA, fibronectin) [2] | cell death ([2]; samples 5-6 and 13-14, 72 hours) | cell death ([3]; sample 6 (3.0 μM), sample 14 (10.0 μM)) | TGF-β2-induced morphologic change (myofibroblast-like appearance) [3] | cell toxicity [4] | TGF-β2 activity related to wound healing [4] | cell death [5]
Cc1cccc(-c2nn(C(=S)Nc3ccccc3)cc2-c2ccnc3ccccc23)n1 [A-83-01] | reduced | effectively inhibited | greatly reduced | No obvious cell death | No obvious cell death | seemed to be averted | No obvious cell toxicity | effectively block | –
NC(=O)c1ccc(-c2nc(-c3ccc4c(c3)OCO4)c(-c3ccccn3)[nH]2)cc1 [SB-431542] | reduced | effectively inhibited | greatly reduced | – | – | seemed to be averted | No obvious cell toxicity | effectively block | No obvious cell death
